Read-outs that look alike come from different tables or passages of the source.
Legend:
PARP1 = target: T1, PARP1 (Homo sapiens, UniProt P09874); test: PARP1 enzyme assay (histone-coated plate, chemiluminescence); assay type: biochemical; settings: PARP1 0.02 nM, DNA 0.8 nM, NAD+ 3.5 µM; read-out: PARP-1 IC50
T1 construct: purchased BPS 80501

[1] = tested on: CD34+ hematopoietic stem and progenitor cells (hmPB34-P-SC); test: Hematological toxicity assay (CellTiter-Glo 2.0); assay type: cell-based; settings: 120 h; 5 days of culture
Description: The next day, the cells were resuspended and seeded in a 96-well plate at a concentration of 1000 cells/well, and meanwhile, different concentrations of the drug were added for treatment, with 3 replicate wells set for each concentration. After 5 days of culture, the number of viable cells in each well was determined using a CellTiter-Glo 2.0 kit, followed by detection by a microplate reader.

[2] = tested on: BRCA-mutated MDA-MB-436 cells; test: Anti-proliferative activity against cells (CCK8): MDA-MB-436; assay type: cell-based; settings: Homo sapiens, 72 h + 96 h culture
[3] = tested on: BRCA wild-type DLD-1 cells; test: Anti-proliferative activity against cells (CCK8): DLD-1; assay type: cell-based; settings: Homo sapiens, 72 h + 96 h culture
Method in brief: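 DLD-1 cells (1000/well) in RPMI-1640 with 10% FBS, treated 24 h after plating with PARPi at 0, 1 or 10 µM final. Cultured 72 h, medium exchanged with re-added PARPi, then a further 96 h; read-out by CCK8.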

[4] = target: T2, hERG potassium ion channel (Homo sapiens, UniProt Q12809); test: Inhibition of hERG potassium ion channel (Qpatch, CHO cells stably expressing hERG); assay type: cell-based; settings: for inhibitory effects on the hERG potassium ion channel (in words): conclusion of Table 17; for inhibition at 2.5 min, 20 µM: human, CHO cells stably expressing hERG, read-out: Inhibition rate at 20 µM
T2 construct: expressed in transfected cells; host or cells: CHO cells
Description: Cell culture and treatment: CHO cells stably expressing hERG were cultured in a cell culture flask and incubated in an incubator with 5% CO2 at 37 °C. When the cell density reached 60%-80%, the cell culture medium was removed by pipetting. The cells were washed once with PBS, and then Detachin was added for detachment. After complete detachment, a culture medium was added for neutralization. The cells were then centrifuged, and the supernatant was removed by pipetting. A culture medium was further added for resuspension, and the cell density was adjusted to (2-5) × 10^6 cells/mL for later use.
Compound preparation: The compound stock solution was diluted with 100% DMSO. Specifically, 10 µL of the compound stock solution was added to 20 µL of DMSO, followed by a 3-fold serial dilution to obtain 6 concentrations. 4 µL of each of the 6 compound solutions at different concentrations was taken and added to 396 µL of an extracellular fluid, resulting in a 100-fold dilution to obtain 6 intermediate concentrations. Then, 80 µL of each of the 6 intermediate-concentration compound solutions was taken and added to 320 µL of an extracellular fluid, resulting in a 5-fold dilution to achieve the final test concentrations. The highest test concentration was 40 µM. […] DMSO at this concentration has no effect on the hERG potassium channel. During the compound preparation, the entire dilution process was completed by a Bravo instrument.
Electrophysiological recording process: The single-cell high-impedance sealing and whole-cell mode formation processes were all completed automatically by a Qpatch instrument. After achieving the whole-cell recording mode, the cells were clamped at -80 mV. Before a 5-second +40 mV depolarizing stimulus was applied, a 50-millisecond -50 mV prepulse voltage was first applied. The potential was then repolarized to -50 mV and held for 5 s, and finally returned to -80 mV. This voltage stimulation was applied every 15 s. After 2 min of recording, the extracellular fluid was administered, followed by recording for 5 min. Then, the compound administration process began, starting from the lowest test compound concentration. Each test concentration was applied for 2.5 min. After all the concentrations were applied consecutively, the positive control compound, 3 µM Cisapride, was administered. At least 3 cells (n ≥ 3) were tested for each concentration.
Data processing: Data analysis and processing were performed using GraphPad Prism 5.0 and Excel software. The IC50 of the compound was calculated using GraphPad Prism 5 software by equation fitting as follows: Y = Bottom + (Top−Bottom)/(1+10^(∧)((LogIC50−X)*HillSLope)) [formula] where X is the Log value of the test concentration of the test sample, Y is the inhibition percentage at the corresponding concentration, and Bottom and Top are the minimum and maximum inhibition percentages, respectively. Table 17. Results of inhibition of hERG potassium ion channel by compounds

[5] = tested on: MDA-MB-436 breast cancer subcutaneous xenograft tumor model; test: In vivo pharmacodynamic study of compound 2 in MDA-MB-436 subcutaneous xenograft tumor model; settings: 100 mg/kg, oral once daily, 30 days
Description: Experimental process: Twenty-four female NOD/SCID mice were used in the experiment. […] All groups were subjected to oral administration once daily. Meanwhile, the mice were weighed every 2 days, and the length and width of the tumors were measured with a vernier caliper. After 30 days of administration, the tumor-bearing mice were anesthetized and sacrificed. The tumor tissues were dissected, weighed, and photographed, and the tumor growth inhibition rates were calculated.

[6] = Cerebrospinal fluid and plasma distribution in vivo; settings: rat, male rats, intravenous 5 mg/kg, n = 1
Description: Experimental procedures: The compound was weighed out, a small amount of DMSO was added, and then a sodium chloride solution for injection was added to prepare a 5 mg·mL^-1 compound solution for later administration. […] 10 µL of the plasma and 10 µL of the cerebrospinal fluid were each added to a centrifuge tube, and 40 µL of acetonitrile containing 20 ng·mL^-1 internal standard SAHA was added for precipitation. […] The supernatant was collected and transferred to a sample vial for later analysis. Range of standard curve: 1-1000 ng·mL^-1.

[7] = Pharmacokinetic evaluation in Balb/c mice; assay type: in vivo; settings: 1mg/kg, PO
Description: Experimental objective: To understand the pharmacokinetic profiles of the compounds. Experimental basis: Technical guidelines for non-clinical pharmacokinetic studies of chemical drugs, 2014.
Experimental scheme: The pharmacokinetic profiles of the compounds were investigated by intravenous administration (1 mg·kg^-1) and intragastric administration (1 mg·kg^-1) in Balb/c mice.
Sample preparation: About 0.2 mg of the compound was weighed out and dissolved in 10 µL of DMSO, and then a sodium chloride solution for injection was added to prepare a 0.1 mg·mL^-1 compound solution for later administration.
Three of the mice were subjected to intravenous administration (IV) at 1 mg·kg^-1, while the other three were subjected to intragastric administration (PO) at 1 mg·kg^-1. About 0.05 mL of blood was collected at 5 min, 15 min, 30 min, 1 h, 2 h, 4 h, 6 h, 8 h, 10 h, 24 h, and 48 h after administration. The collected blood was centrifuged at 3500 rpm for 15 min. The supernatant plasma was then collected and cryopreserved at -40 °C for later analysis. The plasma concentration was quantitatively analyzed using the LC-MS/MS method, and pharmacokinetic parameters such as […] (Cmax), area under plasma concentration-time curve (AUC(0-t)), half-life (T1/2), clearance rate (CL), tissue distribution (Vdss), and bioavailability (F) were calculated. Table 18. Results of pharmacokinetic test of compounds in Balb/c mice

[8] = cerebrospinal fluid, read-out: Cerebrospinal fluid

T2 sequence (Q12809 whole entry): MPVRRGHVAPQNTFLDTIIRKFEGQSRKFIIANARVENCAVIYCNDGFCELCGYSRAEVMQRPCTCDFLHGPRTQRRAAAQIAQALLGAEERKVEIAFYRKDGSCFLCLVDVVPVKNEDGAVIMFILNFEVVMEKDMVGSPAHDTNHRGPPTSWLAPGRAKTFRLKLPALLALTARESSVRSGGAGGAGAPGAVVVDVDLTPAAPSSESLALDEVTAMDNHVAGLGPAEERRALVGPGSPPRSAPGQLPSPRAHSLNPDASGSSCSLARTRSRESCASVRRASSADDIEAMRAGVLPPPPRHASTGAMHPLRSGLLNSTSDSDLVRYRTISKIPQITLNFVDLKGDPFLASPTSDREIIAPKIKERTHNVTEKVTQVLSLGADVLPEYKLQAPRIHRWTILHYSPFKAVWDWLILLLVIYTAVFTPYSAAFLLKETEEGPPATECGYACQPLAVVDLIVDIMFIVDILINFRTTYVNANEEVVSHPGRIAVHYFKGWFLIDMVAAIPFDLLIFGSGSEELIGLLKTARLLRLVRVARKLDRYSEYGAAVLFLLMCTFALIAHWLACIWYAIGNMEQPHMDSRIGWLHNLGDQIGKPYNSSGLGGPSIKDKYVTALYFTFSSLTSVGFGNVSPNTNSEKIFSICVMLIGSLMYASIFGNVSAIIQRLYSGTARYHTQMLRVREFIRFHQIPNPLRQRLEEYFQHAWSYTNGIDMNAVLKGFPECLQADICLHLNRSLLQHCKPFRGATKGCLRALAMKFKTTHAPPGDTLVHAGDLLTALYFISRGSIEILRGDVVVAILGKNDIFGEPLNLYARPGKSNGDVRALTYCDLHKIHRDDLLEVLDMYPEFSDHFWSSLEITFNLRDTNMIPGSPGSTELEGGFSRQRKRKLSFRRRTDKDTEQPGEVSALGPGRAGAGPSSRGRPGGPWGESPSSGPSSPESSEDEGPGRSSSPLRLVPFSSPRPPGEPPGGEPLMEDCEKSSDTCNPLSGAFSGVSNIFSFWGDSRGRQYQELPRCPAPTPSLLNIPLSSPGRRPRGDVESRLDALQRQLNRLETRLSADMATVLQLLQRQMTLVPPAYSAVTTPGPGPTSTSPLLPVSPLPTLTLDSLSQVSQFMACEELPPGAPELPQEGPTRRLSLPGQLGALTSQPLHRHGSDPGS
T1 sequence (P09874 whole entry): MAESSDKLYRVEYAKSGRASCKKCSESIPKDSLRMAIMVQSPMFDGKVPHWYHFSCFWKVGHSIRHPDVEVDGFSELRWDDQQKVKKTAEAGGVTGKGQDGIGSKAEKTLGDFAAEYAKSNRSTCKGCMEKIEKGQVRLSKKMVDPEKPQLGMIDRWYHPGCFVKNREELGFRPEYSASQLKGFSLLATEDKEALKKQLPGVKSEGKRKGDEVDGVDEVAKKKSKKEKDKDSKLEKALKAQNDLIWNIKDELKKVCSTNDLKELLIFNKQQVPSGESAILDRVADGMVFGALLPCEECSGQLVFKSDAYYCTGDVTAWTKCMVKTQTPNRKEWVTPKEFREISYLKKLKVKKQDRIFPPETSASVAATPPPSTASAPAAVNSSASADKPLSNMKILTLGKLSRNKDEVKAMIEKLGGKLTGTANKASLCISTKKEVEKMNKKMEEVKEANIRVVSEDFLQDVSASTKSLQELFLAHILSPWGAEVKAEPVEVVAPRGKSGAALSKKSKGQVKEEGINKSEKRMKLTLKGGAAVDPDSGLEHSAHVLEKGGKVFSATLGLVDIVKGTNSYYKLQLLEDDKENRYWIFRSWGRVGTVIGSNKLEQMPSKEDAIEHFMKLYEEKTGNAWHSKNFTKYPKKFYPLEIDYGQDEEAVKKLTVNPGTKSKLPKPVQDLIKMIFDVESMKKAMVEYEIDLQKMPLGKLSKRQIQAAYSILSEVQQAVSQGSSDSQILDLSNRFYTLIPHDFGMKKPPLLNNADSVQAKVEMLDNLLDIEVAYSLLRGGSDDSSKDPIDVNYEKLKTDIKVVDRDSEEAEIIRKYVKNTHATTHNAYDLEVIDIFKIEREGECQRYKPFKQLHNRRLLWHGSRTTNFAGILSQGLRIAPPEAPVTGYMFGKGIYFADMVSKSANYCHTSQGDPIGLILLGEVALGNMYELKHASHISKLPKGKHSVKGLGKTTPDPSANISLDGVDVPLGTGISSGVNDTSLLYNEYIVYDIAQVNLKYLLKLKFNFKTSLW

Row | Compound | IC50 (PARP1) [nM] | IC50 [1] [nM] | IC50 [2] [nM] | IC50 [3] [nM] | inhibitory effects on the hERG potassium ion channel (in words) [4] | inhibition at 2.5 min, 20 µM [4] [%] | also measured
1 | [2H]C([2H])([C@H]1CCc2nc(C)c(=O)[nH]c2C1)N1CCN(c2ccc(C(=O)NC)nc2Cl)CC1 [Example 85, (S)-6-Chloro-N-methyl-5-(4-((2-methyl-3-oxo-3,4,5,6,7,8-hexahydroquinoxalin-6-yl)methyl-d2)piperazin-1-yl)picolinamide] | ≤ 50 | > 1000 | 7 | > 1000 |  |  | 
2 | Cc1cc2c([nH]c1=O)CC(CN1CCN(c3ccc(C(=O)NC4CC4)nc3Cl)CC1)OC2 (stereo not shown) [Example 62, 6-Chloro-N-cyclopropyl-5-(4-((3-methyl-2-oxo-1,5,7,8-tetrahydro-2H-pyrano[4,3-b]pyridin-7-yl)methyl)piperazin-1-yl)picolinamide] | ≤ 50 |  | 3.5 | > 1000 | Conclusion: Compounds 2, 6, 45, 62, 67, 74, 83, 87, etc., of the present disclosure exhibited relatively weak inhibitory effects on the hERG potassium ion channel. | 49.8 | 
3 | O=C(c1cc(Cc2n[nH]c(=O)c3ccccc23)ccc1F)N1CCN(C(=O)C2CC2)CC1 [Olaparib, reference compound] |  | 200 |  |  |  |  | tumor growth inhibition rate [5]: 65.81%
4 | [2H]C([2H])([C@H]1CCc2nc(C)c(=O)[nH]c2C1)N1CCN(c2ccc(C(=O)NC)nc2F)CC1 [Example 83, (S)-6-Fluoro-N-methyl-5-(4-((2-methyl-3-oxo-3,4,5,6,7,8-hexahydroquinoxalin-6-yl)methyl-d 2)piperazin-1-yl)picolinamide] |  |  |  | > 1000 | Conclusion: Compounds 2, 6, 45, 62, 67, 74, 83, 87, etc., of the present disclosure exhibited relatively weak inhibitory effects on the hERG potassium ion channel. | 0.92 | concentration at 0.25 h [6, 8]: 86 ng/g; concentration at 2 h [6, 8]: 0 ng/g; concentration at 0.25 h ([6]; plasma, read-out: Plasma): 1500 ng/mL; concentration at 2 h ([6]; plasma, read-out: Plasma): 28 ng/mL
5 | CCc1cc2c([nH]c1=O)CC(CN1CC=C(c3ccc(C(=O)NC)nc3F)CC1)OC2 (stereo not shown) [Compound 6, 1'-((3-Ethyl-2-oxo-1,5,7,8-tetrahydro-2H-pyrano[4,3-b]pyridin-7-yl)methyl)-2-fluoro -N-methyl-1',2',3',6'-tetrahydro-[3,4'-bipyridine]-6-carbo xamide] | ≤ 50 |  | 1 | > 1000 | Conclusion: Compounds 2, 6, 45, 62, 67, 74, 83, 87, etc., of the present disclosure exhibited relatively weak inhibitory effects on the hERG potassium ion channel. | 7.97 | 
6 | C=Cc1cc2c([nH]c1=O)CC(CN1CCN(c3ccc(C(=O)NC)nc3F)CC1)OC2 (stereo not shown) [Example 67, 6-Fluoro-N-methyl-5-(4-((2-oxo-3-vinyl-1,5,7,8-tetrahydro-2H-pyrano[4,3-b]pyridin-7-yl)methyl)piperazin-1-yl)picolinamide] | ≤ 50 | > 1000 |  | > 1000 | Conclusion: Compounds 2, 6, 45, 62, 67, 74, 83, 87, etc., of the present disclosure exhibited relatively weak inhibitory effects on the hERG potassium ion channel. | 4.18 | 
7 | CNC(=O)c1ccc(C2=CCN(CC3Cc4[nH]c(=O)c(C5CC5)cc4CO3)CC2)c(F)n1 (stereo not shown) [Example 51, 1'-((3-Cyclopropyl-2-oxo-1,5,7,8-tetrahydro-2H-pyrano[4,3-b]pyridin-7-yl)methyl)-2-fluoro-N-methyl-1',2',3',6'-tetrahydro-[3,4'-bipyridine]-6-carboxamide] | 50 to 500 | > 1000 | 160 | > 1000 |  |  | CL [7]: 0.01 L/h/kg; Vdss [7]: 0.04 L/kg; AUC(0-t) ([7]; male, mouse, plasma): 96800 ng·h/mL; Cmax ([7]; male, mouse, plasma): 6280 ng/mL; half-life ([7]; male, mouse, plasma): 953 min; concentration at 0.25 h [6, 8]: 53 ng/g; concentration at 2 h [6, 8]: 25 ng/g; concentration at 0.25 h ([6]; plasma, read-out: Plasma): 41900 ng/mL; concentration at 2 h ([6]; plasma, read-out: Plasma): 21700 ng/mL
8 | CNC(=O)c1ccc(N2CCN(C[C@H]3CCc4nc(C)c(=O)[nH]c4C3)CC2)c(Cl)n1 [Example 106, (S)-6-Chloro-N-methyl-5-(4-((2-methyl-3-oxo-3,4,5,6,7,8-hexahydroquinoxalin-6-yl)methyl)piperazin-1-yl)picolinamide] | ≤ 50 | > 1000 | 6.5 | > 1000 |  |  | 
9 | Cc1cc2c([nH]c1=O)CC(CN1CCN(c3ccc(C(=O)Nc4cnn(C)c4)nc3F)CC1)OC2 (stereo not shown) [Example 77, 6-Fluoro-N-(1-methyl-1H-pyrazol-4-yl)-5-(4-((3-methyl-2-oxo-1,5,7,8-tetrahydro-2H-pyrano[4,3-b]pyridin-7-yl)methyl)piperazin-1-yl)picolinamide] | ≤ 50 | 307 | 3.9 | > 1000 |  |  | 
10 | Cc1nc2c([nH]c1=O)C[C@@H](CN1CCN(c3ccc(C(=O)NC4CC4)nc3F)CC1)CC2 [Example 81, (S)-N-Cyclopropyl-6-fluoro-5-(4-((2-methyl-3-oxo-3,4,5,6,7,8-hexahydroquinoxalin-6-yl)methyl)piperazin-1-yl)picolinamide] | ≤ 50 | > 1000 | 4.1 | > 1000 |  |  | 
11 | CNC(=O)c1ccc(N2CCN(CC3Cc4[nH]c(=O)c(SC)cc4CO3)CC2)c(C)n1 (stereo not shown) [Example 87, N,6-Dimethyl-5-(4-((3-(methylthio)-2-oxo-1,5,7,8-tetrahydro-2H-pyrano[4,3-b]pyridin-7-yl)methyl)piperazin-1-yl)picolinamide] | ≤ 50 |  | 8.5 | > 1000 | Conclusion: Compounds 2, 6, 45, 62, 67, 74, 83, 87, etc., of the present disclosure exhibited relatively weak inhibitory effects on the hERG potassium ion channel. | 7.34 | 
